Assay results published in patent publication US20050233389A1, “Methods and compositions for peptide and protein labeling” (priority 2003, published 2005).

Key:
BirA = BirA (Escherichia coli, UniProt P06709); experiment: Measurement of probe ligation kinetics (HPLC); type: biochemical, E. coli; settings: for initial rate for ligation to synthetic AP: 100 μM AP, 30° C.
Experimental: (§1) HPLC assay for probe ligation to synthetic AP. The synthetic acceptor peptide (AP) with sequence […] (SEQ ID NO: 22) was synthesized by the Tufts University Core Facility. […] Following lyophilization, the peptide was redissolved in water, and the concentration was determined from the absorbance at 280 nm using the calculated extinction coefficient of 5690 M^−1cm^−1. Reaction conditions for the probe ligation to the AP were as follows: 50 mM bicine pH 8.3, 5 mM Mg(OAc)2, 4 mM ATP, 100 μM AP, 1-2 μM BirA, and 1 mM probe (either biotin or racemic ketone 1). Reactions were incubated at 30° C. for 1-2 hours, then quenched with addition of 45 mM EDTA. Reactions were analyzed on a reverse-phase HPLC column (Microsorb-MV 300 C18). Biotin ligation reactions were analyzed using a gradient of 10-43% acetonitrile/water with 0.1% TFA over 20 minutes (flow rate 1.0 mL/min); retention times were 8.2 minutes for biotin, 16.3 minutes for the AP, and 17.7 minutes for the AP-biotin conjugate. Ketone 1 ligation reactions were analyzed using a gradient of 10-46% acetonitrile/water with 0.1 % TFA over 25 minutes (flow rate 1.0 mL/min); retention times were 16.4 minutes for ketone 1, 17.9 minutes for the AP, and 22.0 minutes for the AP-ketone 1 conjugate. For MALDI-TOF analysis, the product peak was collected, diluted with matrix solution (saturated α-cyano 4-hydroxycinnamic acid in 50% acetonitrile/water with 0.05% TFA), and spotted onto the sample target. Positive-ion MALDI-TOF data was acquired in reflector mode with external calibration.
Measurement of probe ligation kinetics. For kinetic measurements, the reaction conditions were the same as above except that 0.091 μM BirA was used, and for the ketone ligation reactions, 2 mM of racemic ketone 1 was used. A 400 μL reaction was initiated by addition of BirA and incubated at 30° C. At various timepoints, a 40 μL aliquot was removed and quenched with EDTA. Reactions were analyzed by reverse-phase HPLC as described above. The area ratios of AP and AP-probe conjugate peaks were converted to concentrations of AP-probe conjugate using a calibration curve generated by mixing known ratios of AP and AP-probe conjugate. The concentration of AP-probe conjugate was plotted versus time, and the reported initial rate was the slope of the line fit to the linear region of product synthesis.

wild-type BirA = wild-type BirA (Escherichia coli, UniProt P06709); experiment: HPLC assay for probe ligation to synthetic AP; type: biochemical, E. coli; settings: enantiomers separated by chiral HPLC; data not shown
Experimental: as §1, with “For MALDI-TOF analysis, the product peak was collected, diluted with matrix solution (saturated α-cyano 4-hydroxycinnamic acid in 50% acetonitrile/water with 0.05% TFA), and spotted onto the sample target. Positive-ion MALDI-TOF data was acquired in reflector mode with external calibration.” left out

streptavidin = streptavidin (Streptomyces avidinii, UniProt P22629); experiment: streptavidin binding to ketone 1; settings: separate experiments; data not shown
Sequence of streptavidin (P22629 25-183): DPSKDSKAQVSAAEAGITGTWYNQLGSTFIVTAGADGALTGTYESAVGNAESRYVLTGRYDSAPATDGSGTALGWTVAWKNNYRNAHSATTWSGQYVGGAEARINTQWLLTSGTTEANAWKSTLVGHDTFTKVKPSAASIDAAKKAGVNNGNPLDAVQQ

Sequence of BirA (P06709 whole entry): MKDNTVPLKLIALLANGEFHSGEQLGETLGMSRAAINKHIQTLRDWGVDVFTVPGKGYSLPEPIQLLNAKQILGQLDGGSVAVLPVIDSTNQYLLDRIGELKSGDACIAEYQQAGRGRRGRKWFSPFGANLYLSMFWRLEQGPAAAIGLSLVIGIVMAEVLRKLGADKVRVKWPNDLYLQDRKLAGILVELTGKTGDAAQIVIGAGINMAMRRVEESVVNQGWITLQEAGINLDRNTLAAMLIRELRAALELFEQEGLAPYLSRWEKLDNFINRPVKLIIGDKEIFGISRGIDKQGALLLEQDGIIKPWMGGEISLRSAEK
Sequence of wild-type BirA (P06709 whole entry): as above

| SMILES | conversion until which the ligation rate remained constant (BirA; 0.091 μM BirA) | initial rate for ligation to synthetic AP (BirA; 1 mM biotin, 0.091 μM BirA) | acceptance of separated enantiomers by BirA (wild-type BirA) | enzyme turnovers after which the ligation rate slowed markedly (BirA; 0.091 μM BirA) | initial rate for ligation to synthetic AP (BirA; 2 mM racemic ketone 1, 0.091 μM BirA) | initial ligation rate, fold less than that for biotin ligation (BirA; ketone 1 vs biotin, identical conditions) | binding of streptavidin to the probe itself (streptavidin) |
| --- | --- | --- | --- | --- | --- | --- | --- |
| O=C(O)CCCC[C@@H]1SC[C@@H]2NC(=O)N[C@@H]21 [biotin, reference compound] | > 50% | 0.954 ± 0.018 µM/min | – | – | – | – | – |
| O=C(O)CCCC[C@@H]1SC[C@@H]2CC(=O)C[C@@H]21 [ketone 1] | – | – | Only one enantiomer was accepted | ~100 enzyme turnovers | 0.258 ± 0.024 µM/min | 3.7 fold | does not bind |
